According to patent publication US10836767B2, “Serum stable pro-coelenterazine analogues” (PROMEGA CORPORATION, priority 2017, dated 2020):

Test system: DLD-1 cells
Assay: Complementary NanoLuc fragment-fused Annexin V real-time apoptosis assay
Assay type: cell-based
Settings: 10,000 DLD-1 cells/well; rhTRAIL; t=3.5, 7, 24 and 30 hr
Source text: Small and large fragments of luciferase have been engineered as fusion proteins linked to annexin V for detecting of apoptosis in real-time using a plate-reading luminometer. The individual annexin V-luciferase fragment fusion pairs have low intrinsic affinity for each other, and thus produce no or low luminescence in culture medium or in the presence of non-apoptotic cells; but, when the annexin V-luciferase fragment fusion proteins bind in close proximity to phosphatidylserine exposed on the surface of apoptotic cells, the luciferase fragments reconstitute an active enzyme and generate a luminescent signal.
General protocol for complementary NanoLuc® fragment-fused-Annexin V binding: DLD-1 cells (10,000/well; 100 μL) were plated in medium+10% FBS and 2× CellTox Green in a solid white 96-well plate. After the cells were allowed to attach, 50 μL of recombinant human TRAIL at final concentration 500 ng/ml in medium+10% FBS fortified with 1 mM CaCl2 was added. […] The plate was incubated at 37° C./5% CO2 in a tissue culture incubator, and luminescence and fluorescence (Ex 485/Em 520) was measured kinetically at the indicated time points. […] The kinetically preceded increases in fluorescence of Cytotox Green indicate cell death. […]

Compound: COCCOCCOCCOCC(C)(C)C(=O)OCOc1c(Cc2ccco2)nc2c(Cc3ccccc3)nc(-c3ccccc3)cn12 [WZ-0336, ((8-benzyl-2-(furan-2-ylmethyl)-6-phenylimidazo[1,2-a]pyrazin-3-yl)oxy)methyl 13,13-dimethyl-2,5,8,11-tetraoxatetradecan-14-oate]
- luminescence response to TRAIL with the compound as pro-substrate: dose-dependent increases in luminescence
